Source: patent publication US9216957B2, “Androgen receptor antagonists and uses thereof” (SUZHOU KINTOR PHARMACEUTICALS, INC., priority 2011, dated 2015)
Like-named read-outs stand apart in the source and are kept apart here.

Tested on: Prostate-specific antigen (PSA) production in LNCaP cells
Test: PSA Assay (inhibition of PSA production in prostate cancer cells, ELISA)
Type: cell-based, human
Method: PSA Assay (Inhibition Test of the Compound of the Present Invention on Prostate-Specific Antigen (PSA) Production in Various Prostate Cancer Cells).
Androgen dependent LNCaP cells were purchased from the American Type Culture Collection (ATCC, Manassas, Va.). These cells were grown in RPMI 1640 medium supplemented with 10% fetal bovine serum (FBS), 100 U/mL penicillin, 100 μg/mL streptomycin, and 0.25 μg/mL amphotericin B. The cells were maintained at 37° C. and 5% CO2. LNCaP cells between passage 20 and 35 were used for experiments. LNCaP is a hormone sensitive cell line. For the PSA assay, human prostate cancer cells LNCaP were seeded in a 96-well plate at a concentration of 5000 cells/100 μl/well. On the following day, Methyltrienolone (R1881, AR agonist) (final concentration 1 ng/ml), test compounds or bicalutamide (Casodex®, AstraZeneca) (final concentration 0.005 to 20 μM) were added. Three days after the addition, the concentration of PSA in the supernatant of the culture solution was measured by ELISA. ELISAs for human PSA in culture medium were performed using the ultra-sensitive assay procedure and reagents in the Active™ PSA assay kit (Diagnostic Systems Laboratories Inc., Webster, Tex.). Culture medium and standards (200 μl/well) were incubated in antibody-coated plates for 2 h at room temperature on a Titer plate shaker at 500-600 rpm. Wells were then washed five times. The HRP conjugate was diluted 1:20 with assay buffer, and 100 μl was added to all wells. The plates were incubated for 30 min at room temperature on the shaker and washed as before, and 100 μl TMB (3,3′,5,5′-tetramethylbenzidine, 0.4 g/l) was added. The plates were incubated for 10 min on the shaker, and the reaction was terminated with 100 μl stop solution. The plates were read using a plate reader at 450 nm with a 650 nm reference filter. PSA levels were normalized for differences in growth of LNCaP cells following various treatments as determined by the MTS assay. IC50 of PSA was calculated based on a seven point assay (concentrations of tested compound) and expressed as micromolar (uM).

[1] = Homo sapiens, LNCaP, 72 h, read-out: LNCAP IC50 (uM), inhibition of PSA production, LNCaP cells, R1881 1 ng/ml, three days, seven point assay

| Compound | IC50 [1] | IC50 (read-out: LNCAP IC50, inhibition of PSA production, LNCaP cells, R1881 1 ng/ml, three days, seven point assay) |
| --- | --- | --- |
| CC1(C)C(=O)N(c2ccc(C#N)c(C(F)(F)F)c2)C(=S)N1c1ccc(CCCC(=O)N2CCOCC2)nc1 [Example 56, 4-{4,4-Dimethyl-3-[6-(4-morpholin-4-yl-4-oxo-butyl)-pyridin-3-yl]-5-oxo-2-thioxo-imidazolidin-1-yl}-2-trifluoromethyl-benzonitrile] | 3.64 µM |  |
| CNC(=O)CCCc1ccc(N2C(=S)N(c3ccc(C#N)c(C(F)(F)F)c3F)C(=O)C2(C)C)cn1 [Example 57, 4-{5-[3-(4-Cyano-2-fluoro-3-trifluoromethyl-phenyl)-5,5-dimethyl-4-oxo-2-thioxo-imidazolidin-1-yl]-pyridin-2-yl}-N-methyl-butyramide] | 1.91 µM |  |
| CC1(C)C(=O)N(c2ccc(C#N)c(C(F)(F)F)c2F)C(=S)N1c1ccc(CCCC(=O)N2CCOCC2)c(F)c1 [Example 58, 3-fluoro-4-(3-(3-fluoro-4-(4-morpholino-4-oxobutyl)phenyl)-4,4-dimethyl-5-oxo-2-thioxoimidazolidin-1-yl)-2-(trifluoromethyl)benzonitrile] | 0.53 µM |  |
| CC1(C)C(=O)N(c2ccc(C#N)c(Cl)c2F)C(=S)N1c1ccc(CCCC#N)cc1 [Example 59, 2-chloro-4-(3-(4-(3-cyanopropyl)phenyl)-4,4-dimethyl-5-oxo-2-thioxoimidazolidin-1-yl)-3-fluorobenzonitrile] |  | 0.48 µM |
| CC1(C)C(=O)N(c2cc(C(F)(F)F)c(C#N)cc2F)C(=S)N1c1ccc(CCCc2ncc[nH]2)c(F)c1 [Example 60, 4-(3-(4-(3-(1H-imidazol-2-yl)propyl)-3-fluorophenyl)-4,4-dimethyl-5-oxo-2-thioxoimidazolidin-1-yl)-5-fluoro-2-(trifluoromethyl)benzonitrile] | 3.3 µM |  |
| N#Cc1ccc(N2C(=O)C3(CCC3)N(c3ccc(CCCC(=O)N4CC(O)C4)c(F)c3)C2=S)c(F)c1C(F)(F)F [Example 61, 3-Fluoro-4-(5-{3-fluoro-4-[4-(3-hydroxy-azetidin-1-yl)-4-oxo-butyl]-phenyl}-8-oxo-6-thioxo-5,7-diaza-spiro[3.4]oct-7-yl)-2-trifluoromethyl-benzonitrile] | 0.19 µM |  |
| CC1(C)C(=O)N(c2ccc(C#N)c(C(F)(F)F)c2F)C(=S)N1c1ccc(CCCc2ncco2)nc1 [Example 63, 4-{4,4-Dimethyl-3-[6-(3-oxazol-2-yl-propyl)-pyridin-3-yl]-5-oxo-2-thioxo-imidazolidin-1-yl}-3-fluoro-2-trifluoromethyl-benzonitrile] | 0.1 µM |  |
| CC1(C)C(=O)N(c2ccc(C#N)c(C(F)(F)F)c2)C(=S)N1c1ccc(CCCc2ncco2)nc1 [Example 64, 4-{4,4-Dimethyl-3-[6-(3-oxazol-2-yl-propyl)-pyridin-3-yl]-5-oxo-2-thioxo-imidazolidin-1-yl}-2-trifluoromethyl-benzonitrile] | 0.45 µM |  |
| N#Cc1ccc(N2C(=O)C3(CCC3)N(c3ccc(CCCc4ncco4)nc3)C2=S)c(F)c1C(F)(F)F [Example 65, 3-Fluoro-4-{5-[6-(3-oxazol-2-yl-propyl)-pyridin-3-yl]-8-oxo-6-thioxo-5,7-diaza-spiro[3.4]oct-7-yl}-2-trifluoromethyl-benzonitrile] | 0.6 µM |  |
| CC1(C)C(=O)N(c2ccc(C#N)c(C(F)(F)F)c2F)C(=S)N1c1ccc(CCCc2ncc[nH]2)nc1 [Example 66, 4-(3-(6-(3-(1H-imidazol-2-yl)propyl)pyridin-3-yl)-4,4-dimethyl-5-oxo-2-thioxoimidazolidin-1-yl)-3-fluoro-2-(trifluoromethyl)benzonitrile] | 1.27 µM |  |
| CC1(C)C(=O)N(c2ccc(C#N)c(C(F)(F)F)c2F)C(=S)N1c1ccc(CCCc2nccs2)nc1 [Example 67, 4-(4,4-dimethyl-5-oxo-3-(6-(3-(thiazol-2-yl)propyl)pyridin-3-yl)-2-thioxoimidazolidin-1-yl)-3-fluoro-2-(trifluoromethyl)benzonitrile] | 0.27 µM |  |
| N#Cc1ccc(N2C(=O)C3(CCC3)N(c3ccc(CCCc4nccs4)nc3)C2=S)c(F)c1C(F)(F)F [Example 68, 3-fluoro-4-(8-oxo-5-(6-(3-(thiazol-2-yl)propyl)pyridin-3-yl)-6-thioxo-5,7-diazaspiro[3.4]octan-7-yl)-2-(trifluoromethyl)benzonitrile] | 0.61 µM |  |
| COc1cc(N2C(=O)C(C)(C)N(c3ccc(CCCc4nccs4)nc3)C2=S)ccc1C#N [Example 69, 4-(4,4-dimethyl-5-oxo-3-(6-(3-(thiazol-2-yl)propyl)pyridin-3-yl)-2-thioxoimidazolidin-1-yl)-2-methoxybenzonitrile] | 0.68 µM |  |
